Read-outs that look alike come from different tables or passages of the source.
How the values were obtained:
[1] = Headspace above the milkshake, SPME-GC, relative partition parameters; type: physicochemical
Method: (§1) The procedure is analogous in all examples.
The example reflects the taste impression which is perceived via the olfactory epithelium, when enjoying a milkshake. The milkshake is prepared as is generally customary. The mixture of 39 aroma substances is incorporated into the abovementioned milk product (1) in an amount of 0.2%. 50 g of this mixture are transferred to a 100 ml Erlenmeyer flask sealed with a septum and left to stand for 2 h at 35° C. with gentle stirring. The headspace above the mixture is extracted over 15 min using solid phase microextraction (SPME). The SPME needle is desorbed in a GC injector, and a gas chromatogram is recorded. […] The analytical results are then used mathematically as described above.

[2] = Headspace above the lemonade, SPME, relative partition parameters; type: physicochemical
Method: as §1
The example reflects the taste impression which is perceived from via the olfactory epithelium, when enjoying a lemonade drink. The mixture of 39 odorants is incorporated into the above-mentioned lemonade drink (1) in an amount of 0.05%. 50 g of the lemonade drink are transferred to a 100 ml Erlenmeyer flask sealed with a septum and left to stand for 2 h at 35° C. with gentle stirring. The headspace above the lemonade is extracted using a SPME over 15 min. […] The analytical results are then used mathematically as described above.

[3] = according to COSMO-RS correlation
[4] = according to COSMO-RS correlation; remark: listed apart in the source
[5] = headspace vs milkshake, 0.2% aroma mixture, 2 h at 35° C., SPME 15 min
[6] = headspace vs lemonade, 0.05% odorant mixture, 2 h at 35° C., SPME 15 min

Row | Molecule | Activity (logarithmic partition parameter above a milkshake) [1, 5] | Activity (logarithmic partition parameter above lemonade) [2, 6] | Differences (Activity minus Prediction, milkshake) [3] | Differences (Activity minus Prediction, lemonade) [4] | Activity (logarithmic partition parameter above a milkshake) [1] | Activity (logarithmic partition parameter above lemonade) [2]
1 | OCCc1ccccc1 [PEA, phenylethyl alcohol] | 0.188 | 0.001 | 0.225 | 0.272 |  | 
2 | CC(=O)OC(C)(C)C1CC=C(C)CC1 (centres unmarked) [Terpinyl acetate] |  |  |  |  | 0.418 | 0.644
3 | O=c1ccc2ccccc2o1 [Coumarin] |  |  | 0.244 | 0.162 |  | 
4 | C[C@@H]1CC[C@H]2C(C)(C)[C@H]3C[C@@]12CC[C@@]3(C)O [Cedrol] | −1.077 | −0.895 | −0.025 | 0.196 |  | 
5 | CC(C)CCOC(=O)c1ccccc1O [Isoamyl salicylate] | −0.528 | −0.462 | 0.215 | 0.201 |  | 
6 | CCOC(=O)c1ccccc1C(=O)OCC [Diethyl phthalate] | −1.607 | −1.895 | −0.553 | −1.693 |  | 
7 | CC(C)=CCCC(C)CCO (centres unmarked) [Citronellol] | 0.199 | 0.044 | 0.138 | 0.207 |  | 
8 | Caryophyllene |  |  |  |  | 1.132 | 0.827
9 | CC(=O)O[C@@H]1C[C@H]2CC[C@]1(C)C2(C)C (racemic) [Isobornyl acetate] | 0.707 | 0.994 | 0.480 | 0.587 |  | 
10 | C=C(C)[C@H]1CC=C(C)CC1 [Limonene D] | 1.088 | 0.925 | −0.090 | 0.072 |  | 
11 | CC(CC=O)CCCC(C)(C)O (centres unmarked) [Hydroxycitronellal] | −1.679 | −1.879 | −1.369 | −1.868 |  | 
12 | CC(=O)/C=C/C1=C(C)CCCC1(C)C [Ionone, β, Ionone, beta] | −0.154 | −0.061 | 0.047 | 0.072 |  | 
13 | CC(=O)O[C@]1(C)CC[C@@]23C[C@@H]1C(C)(C)[C@@H]2CC[C@H]3C [Cedryl acetate] |  |  |  |  | −1.690 | −1.653
14 | OCc1ccccc1 [Benzyl alcohol] | −0.819 | −1.955 | −0.391 | −0.783 |  | 
15 | CC(C)=CCC/C(C)=C/CO [Geraniol] | −0.053 | −0.413 |  |  |  | 
